This assay deals with T1, Bradykinin receptor (Cavia porcellus, UniProt O70526).
T1 construct: The ileum was removed and homogenized in buffer; from tissue; host or cells: guinea pig ileum, crude membrane suspension
T1 sequence (O70526 1-372): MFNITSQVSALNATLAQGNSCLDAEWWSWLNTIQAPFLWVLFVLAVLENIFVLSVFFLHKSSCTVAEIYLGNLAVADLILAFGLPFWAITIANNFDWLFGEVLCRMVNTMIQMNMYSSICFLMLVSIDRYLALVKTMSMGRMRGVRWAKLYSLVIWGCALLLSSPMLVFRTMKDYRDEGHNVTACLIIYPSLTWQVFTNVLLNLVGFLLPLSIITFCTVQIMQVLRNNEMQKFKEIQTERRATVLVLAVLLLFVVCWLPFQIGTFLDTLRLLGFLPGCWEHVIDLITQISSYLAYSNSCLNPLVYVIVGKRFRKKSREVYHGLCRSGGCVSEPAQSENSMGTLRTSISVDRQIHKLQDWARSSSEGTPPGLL
The assay can be described thus: 3H-Bradykinin receptor binding (crude ileum membrane). Details: species or system guinea pig (male Hartly strain). Conditions: concentration: 1 × 10^-6 M; guinea pig ileum membrane, room temperature, 60 minutes. As for the experimental part:
^3 H-Bradykinin receptor binding
(a) Crude ileum membrane preparation
Male Hartly strain guinea pigs were sacrificed by decapitation. The ileum was removed and homogenized in buffer (50 mM trimethylaminoethanesulfonic acid (TES), 1 mM 1,10-phenanthroline pH 6.8). The homogenate was centrifuged (1000× g, 20 minutes) to remove tissue clumps and the supernatant was centrifuges (100,000× g, 60 minutes) to yield a pellet. The pellet was resuspended in buffer (50 mM TES, 1 mM 1,10-phenanthroline, 140 mg/l bacitracin, 1 mM dithiothreiol, 0.1% bovine serum albumin pH 6.8) and homogenized with a glass-teflon homogenizer to yield suspension which was referred to as crude membrane suspension. The obtained membrane suspension was stored at -80° C. until use.
(b) ^3 H-Bradykinin binding to the membrane
The frozen crude membrane suspension was thawed. In binding assays, ^3 H-Bradykinin ([…]) and drug (1×10^-6 M) were incubated with 50 μl of the membrane suspension at room temperature for 60 minutes in a final volume of 250 μl. Separation of receptor-bound from free ^3 H-Bradykinin is achieved by immediate filtration under vacuum and washed three times with 5 ml of ice-cold buffer (50 mM Tris-HCl pH 7.5). Non-specific binding was defined as binding in the presence of 0.1 μM Bradykinin. The radioactivity retained on rinsed filters was determined by a liquid-scintillation counter.

Molecules are shown by their SMILES. Counter-ions that a name gives are not always drawn.

The inhibition is the relative decrease from the control value, in per cent. A higher inhibition goes with a strong effect.

Regarding `CNC(=O)c1ccc(/C=C/C(=O)NCC(=O)N(C)c2ccc(C)c(COc3cccn4c(=O)cc(C)nc34)c2C)cc1` [90-(2), 9-[2,6-Dimethyl-3-[N-methyl-N-[4(methylcarbomoyl)cinnamoylglycyl]amino]benzyloxy]-2-methyl-4H-pyrido-[1,2-a]pyrimidin-4-one], the inhibition at 1 µM came to 98%. For `CNC(=O)c1ccc(/C=C/C(=O)NCC(=O)N(C)c2ccc(Cl)c(CNc3cccc4ccc(C)nc34)c2Cl)cc1` [Example 73-(4), 8-[2,6-dichloro-3-[N-methyl-N-[4-(methylcarbamoyl)cinnamoylglycyl]amino]benzylamino]-2-methylquinoline dihydrochloride] the value was 95%. As to `COC(=O)c1cncc(NC(=O)NCC(=O)N(C)c2ccc(Cl)c(COc3cccc4ccc(C)nc34)c2Cl)c1` [34-(3), 8-[2,6-Dichloro-3-[N-[N'-(5-methoxycarbonylpyridin-3-yl)ureidoacetyl]-N-methylamino]benzyloxy]-2-methylquinoline], the inhibition at 1 µM came to 100%.

In turn, `CNC(=O)c1ccc(/C=C/C(=O)NCC(=O)N(C)c2ccc(Cl)c(COc3cccc4ccc(C)nc34)c2)cc1` [37-(5) hydrochloride] came in with an inhibition at 1 µM of 100%. Under `CNC(=O)c1ccc(/C=C/C(=O)NCC(=O)N(C)c2ccc(Cl)c(COc3cccc4c(NCCOC)cc(C)nc34)c2Cl)cc1` [10-(9) dihydrochloride] stands 99%; under `Cc1ccc2cccc(OCc3c(Cl)ccc(N(C)C(=O)CNC(=O)CNc4nc5ccccc5s4)c3Cl)c2n1` [2-(14), 8-[3-[N-[2-(2-Benzothiazolylamino)acetylglycyl]-N-methylamino]-2,6-dichlorobenzyloxy]-2-methylquinoline], 96%; under `CNC(=O)c1nc2ccc(C(=O)NCC(=O)N(C)c3ccc(Cl)c(COc4cccc5ccc(C)nc45)c3Cl)cc2cc1C` [25-(2) dihydrochloride], 96%.

The record behind these values is patent publication US5994368A, “Pyridopyrimidones, quinolines and fused N-heterocycles as bradykinin antagonists” (Fujisawa Pharmaceutical Co., Ltd., priority 1994, dated 1999).
